Measurements published in patent publication US8772316B2, “Substituted 6,7-dialkoxy-3-isoquinolinol derivatives as inhibitors of phosphodiesterase 10 (PDE10A)” (Allergan, Inc., priority 2011, dated 2014).
Counter-ions that a name gives are not always drawn.

Target: PDE10A
Assay: Phosphodiesterase assay (TR-FRET, LANCE cAMP kit)
Format: biochemical
Conditions: PDE10A (BPS Bioscience) 200 pg/well, biotin-cAMP substrate, 60 min at room temperature
Experimental: The PDE assay is based on the homogenous time-resolved fluorescence resonance energy transfer (TR-FRET) technology (LANCE® from Perkin Elmer). […] When there is PDE activity, resulting in the degradation of the cyclic nucleotide, the complex is not formed and a decrease in signal is observed.
The phosphodiesterase assay was developed using the LANCE® cAMP kit (PerkinElmer). The assay buffer contained HBSS with 5 mM HEPES, 0.1% BSA, and 1.5 mM MgCl2, pH 7.4. PDE10A (BPS Bioscience) was used at 200 pg/well (with a specific activity of 3200 pmole/min/μg with assay conditions: 10 mM Tris-HCl, pH7.4, 10 mM MgCl2, 1 mM MnCl2, 200 μM cAMP, 2.5 kU 5′ nucleotidase, 37° C., 20 min). […] Chemical compounds were dissolved in DMSO (final concentration 2% (v/v)).
In a 384-well plate, 2 μL inhibitor and 3 μL PDE were added to the well, followed by the addition of 5 μl substrate biotinylated cAMP (1:5). After 60 min incubation at room temperature, 10 μL of assay detection mixture was added to the assay plate. After 1 h at room temperature, the signal was measured on EnVision™ (Perkin Elmer).

IC50	SMILES
> 1000 nM	CCNc1nc2ccc(OC)cc2cc1C(=O)c1c(O)nc(C)c2cc(OC)c(OC)cc12 [Compound 75, (2-(ethylamino)-6-methoxyquinolin-3-yl)(3-hydroxy-6,7-dimethoxy-1-methylisoquinolin-4-yl)methanone dihydrochloride]
1410 nM	COc1cc2c(C)nc(OC)c(Cc3ccc4ccccc4c3)c2cc1OC [Compound 18, 3,6,7-trimethoxy-1-methyl-4-(naphthalen-2-ylmethyl)isoquinoline hydrochloride]
0.4 nM	CCc1nc(O)c(Cc2cnc3ccc(OC)cc3c2)c2cc(OC)c(OC)cc12 [Compound 85, 1-ethyl-6,7-dimethoxy-4-((6-methoxyquinolin-3-yl)methyl)isoquinolin-3-ol dihydrochloride]
200 nM	CCc1nc(O)c(Cc2cc3cc(OC)ccc3nc2N=[N+]=[N-])c2cc(OC)c(OC)cc12 [Compound 68, 4-((2-Azido-6-methoxyquinolin-3-yl)methyl)-1-ethyl-6,7-dimethoxyisoquinolin-3-ol dihydrochloride]
14 nM	COc1cc2c(C)nc(O)c(Cc3ccc4ccccc4c3)c2cc1OC [Compound 17, 6,7-dimethoxy-1-methyl-4-(naphthalen-2-ylmethyl)isoquinolin-3-ol hydrochloride]
24 nM	COc1cc2c(C)nc(O)c(Cc3cnc4ccccc4c3)c2cc1OC [Compound 26, 6,7-Dimethoxy-1-methyl-4-(quinolin-3-ylmethyl)isoquinolin-3-ol dihydrochloride]
2.7 nM	COc1ccc2nc(NCCNC(C)=O)c(Cc3c(O)nc(C)c4cc(OC)c(OC)cc34)cc2c1 [Compound 73, N-(2-(3-((3-hydroxy-6,7-dimethoxy-1-methylisoquinolin-4-yl)methyl)-6-methoxyquinolin-2-ylamino)ethyl)acetamide dihydrochloride]
23 nM	CCCc1nc(O)c(Cc2cc3cc(OC)ccc3nc2NCC(F)(F)F)c2cc(OC)c(OC)cc12 [Compound 54, 6,7-dimethoxy-4-((6-methoxy-2-((2,2,2-trifluoroethyl)amino)quinolin-3-yl)methyl)-1-propylisoquinolin-3-ol dihydrochloride]
175 nM	CCNc1nc2ccc(OC)cc2cc1Cc1c(OC(C)=O)nc(CNC(C)=O)c2cc(OC)c(OC)cc12 [Compound 56, 1-(Acetamidomethyl)-4-((2-(ethylamino)-6-methoxyquinolin-3-yl)methyl)-6,7-dimethoxyisoquinolin-3-yl acetate]
52 nM	CCc1nc(O)c(Cc2cccc(-c3cccc(N)c3)c2)c2cc(OC)c(OC)cc12 [Compound 10, 4-((3′-amino-[1,1′-biphenyl]-3-yl)methyl)-1-ethyl-6,7-dimethoxyisoquinolin-3-ol dihydrochloride]
1.4 nM	CCNc1nc2cc(F)c(OC)cc2cc1Cc1c(O)nc(CC)c2cc(OC)c(OC)cc12 [Compound 82, 1-Ethyl-4-((2-(ethylamino)-7-fluoro-6-methoxyquinolin-3-yl)methyl)-6,7-dimethoxyisoquinolin-3-ol dihydrochloride]
1.6 nM	CCc1nc(O)c(Cc2cc3cc(OC)ccc3nc2NC)c2cc(OC)c(OC)cc12 [Compound 39, 1-ethyl-6,7-dimethoxy-4-((6-methoxy-2-(methylamino)quinolin-3-yl)methyl)isoquinolin-3-ol dihydrochloride]
0.8 nM	CCCc1nc(O)c(Cc2cc3cc(OC)ccc3nc2NC(C)C)c2cc(OC)c(OC)cc12 [Compound 53, 4-((2-(Isopropylamino)-6-methoxyquinolin-3-yl)methyl)-6,7-dimethoxy-1-propylisoquinolin-3-ol dihydrochloride]
5 nM	CCNc1nc2ccc(OCC)cc2cc1Cc1c(O)nc(CC)c2cc(OC)c(OC)cc12 [Compound 41, 4-((6-Ethoxy-2-(ethylamino)quinolin-3-yl)methyl)-1-ethyl-6,7-dimethoxyisoquinolin-3-ol dihydrochloride]
